Assay results from patent US20160291027A1, “METHODS FOR […] ABILITY OF A Z[…] COMPOUND TO TREAT CANCER” (Eisai R&D Management Co., Ltd., priority 2007, published 2016).

Tested on: IL-8 secretion by LOX human melanoma cells
Assay: IL-8 secretion by LOX melanoma cells (ELISA)
Format: cell-based
Conditions: 24 hours
Description: Compound 106 (5.0 mg) was weighed and dissolved in 100% anhydrous DMSO (dimethyl sulfoxide, Sigma-Aldrich®, St. Louis, Mo.) to produce a 10 mmol/L stock solution of 3.89 mg/mL. Aliquots of the 10 mmol/L stock solution were stored at −80° C. Then, on each day of an experiment, an aliquot of the stock solution was thawed and diluted 1:10 by adding RPMI-1640 culture medium to obtain a 1 mmol/L solution. Four serial 1:10 dilutions were made from 1 mmol/L working solution by adding 10% DMSO in RPMI-1640 culture medium to obtain 4 additional working solutions. Each of these working stock solutions was further diluted with culture media to obtain diluted working solutions ranging from 1 nmol/L to 10,000 nmol/L. Five mL of each of these diluted working solutions was added to each dish.
LOX human melanoma cells were originally obtained from the DCTD Tumor Repository (Frederick, Md.). The cells were grown in monolayer cultures in RPMI-1640 growth media containing 10% fetal bovine serum (FBS) at 37° C. in a 5% CO2 humidified incubator.
LOX human melanoma cells were plated at 1×10^6 cells into 100 mm dishes. After 48 hours, cells were washed three times with phosphate buffered saline (PBS) and were cultured with RPMI-1640 medium containing 0.1% FBS for another 24 hours. After removing the cell culture medium, fresh RPMI-1640 medium containing Compound 106 (1, 10, 100, 1000, or 10,000 nmol/L) was added to each culture dish and incubated for 24 hours (see Table 5). The control received 0.1% DMSO in RPMI-1640 culture medium alone to measure spontaneous secretion of IL-6 and IL-8. Three separate experiments were performed in duplicate to calculate the mean±SEM.
After a 24 hour incubation with Compound 106 or 0.1% DMSO, 5 mL of cell culture supernatant was collected. Any particulate material was removed by centrifugation. All samples were stored in the −80° C. freezer until analysis. Human IL-6 or IL-8 was determined using an ELISA kit (Human IL-8 ELISA Set, Catalog No. 555244, BD Biosciences, San Diego, Calif. and Human IL-6 ELISA Set, Catalog No. 555220, BD Biosciences, San Diego, Calif.) with the assay procedure provided by the kits. Absorbance was read on a VERSAMAX™ (Molecular Devices, now part of MDS Analytical Technologies, Sunnyvale Calif.).
After removing the cell culture supernatant, 1.0 mL of trypsin was added to the cells for 3 minutes, and then 4 mL of media containing 10% FBS was added for cell counting. Cells were counted using a hematocytometer (Bright Line Counting Chamber, Hausser Scientific, Horsham, Pa.) with a depth of 0.1 mm. The total number of cells was calculated as follows:
Total number of cells in 5 mL=C×10^4/mL×5 mL(C: actual cell count in 1 mm^2)
The level of IL-6 or IL-8 was determined as ng/1×10^6 cells. Inhibition of IL-6 or IL-8 secretion by Compound 106 was expressed as percent of control using the formula below:
Percent of control=(value of treatment−mean value of blank)/(value of control−mean value of blank)×100
The software, Graphpad Prism® (ver. 4, San Diego, Calif.) was used for calculation of mean IC50 values.

SMILES: CCNc1cc(O)c2c(c1)/C=C/C[C@H](O)[C@H](O)C(=O)/C=C\[C@@H](C)[C@H](C)OC2=O [Compound 106]
- IL-8 (ng/million cells) Mean (1 nmol/L): 128.8 ng/million cells
- IL-8 (pg/million cells) Experiment 1 (1 nmol/L): 112318 pg/million cells
- IL-8 (pg/million cells) Experiment 2 (1 nmol/L): 213228 pg/million cells
- IL-8 (pg/million cells) Experiment 3 (1 nmol/L): 60753 pg/million cells
- Protein level of IL-8, Percent (%) of control Experiment 1 (1 nmol/L): 106.9%
- Protein level of IL-8, Percent (%) of control Experiment 2 (1 nmol/L): 123.9%
- Protein level of IL-8, Percent (%) of control Experiment 3 (1 nmol/L): 163.4%
- IL-8 (ng/million cells) Mean (10 nmol/L): 60.2 ng/million cells
- IL-8 (pg/million cells) Experiment 1 (10 nmol/L): 47049 pg/million cells
- IL-8 (pg/million cells) Experiment 2 (10 nmol/L): 90632 pg/million cells
- IL-8 (pg/million cells) Experiment 3 (10 nmol/L): 42942 pg/million cells
- Protein level of IL-8, Percent (%) of control Experiment 1 (10 nmol/L): 44.8%
- Protein level of IL-8, Percent (%) of control Experiment 2 (10 nmol/L): 52.7%
- Protein level of IL-8, Percent (%) of control Experiment 3 (10 nmol/L): 115.5%
- IL-8 (ng/million cells) Mean (100 nmol/L): 3.1 ng/million cells
- IL-8 (pg/million cells) Experiment 1 (100 nmol/L): 3079 pg/million cells
- IL-8 (pg/million cells) Experiment 2 (100 nmol/L): 3249 pg/million cells
- IL-8 (pg/million cells) Experiment 3 (100 nmol/L): 3101 pg/million cells
- Protein level of IL-8, Percent (%) of control Experiment 1 (100 nmol/L): 2.9%
- Protein level of IL-8, Percent (%) of control Experiment 2 (100 nmol/L): 1.9%
- Protein level of IL-8, Percent (%) of control Experiment 3 (100 nmol/L): 8.3%
- IL-8 (ng/million cells) Mean (1,000 nmol/L): 2.4 ng/million cells
- IL-8 (pg/million cells) Experiment 1 (1,000 nmol/L): 3390 pg/million cells
- IL-8 (pg/million cells) Experiment 2 (1,000 nmol/L): 2273 pg/million cells
- IL-8 (pg/million cells) Experiment 3 (1,000 nmol/L): 1494 pg/million cells
- Protein level of IL-8, Percent (%) of control Experiment 1 (1,000 nmol/L): 3.2%
- Protein level of IL-8, Percent (%) of control Experiment 2 (1,000 nmol/L): 1.3%
- Protein level of IL-8, Percent (%) of control Experiment 3 (1,000 nmol/L): 4.0%
- IL-8 (ng/million cells) Mean (10,000 nmol/L): 2.9 ng/million cells
- IL-8 (pg/million cells) Experiment 1 (10,000 nmol/L): 5179 pg/million cells
- IL-8 (pg/million cells) Experiment 2 (10,000 nmol/L): 1384 pg/million cells
- IL-8 (pg/million cells) Experiment 3 (10,000 nmol/L): 2179 pg/million cells
- Protein level of IL-8, Percent (%) of control Experiment 1 (10,000 nmol/L): 4.9%
- Protein level of IL-8, Percent (%) of control Experiment 2 (10,000 nmol/L): 0.8%
- Protein level of IL-8, Percent (%) of control Experiment 3 (10,000 nmol/L): 5.9%
- activity at 0.001 µM (Homo sapiens, LOX, 1 nmol/L, read-out: Protein level of IL-8, Mean % of control): 131%
- activity at 0.01 µM (Homo sapiens, LOX, 10 nmol/L, read-out: Protein level of IL-8, Mean % of control): 71%
- activity at 0.1 µM (Homo sapiens, LOX, 100 nmol/L, read-out: Protein level of IL-8, Mean % of control): 4.4%
- activity at 1 µM (Homo sapiens, LOX, 1,000 nmol/L, read-out: Protein level of IL-8, Mean % of control): 2.9%
- activity at 10 µM (Homo sapiens, LOX, 10,000 nmol/L, read-out: Protein level of IL-8, Mean % of control): 3.9%
- IC50 (Homo sapiens, LOX melanoma cell line, read-out: mean calculated IC50, IL-8 protein level): 0.0105 µM
